Experimental data reported in patent publication US8455497B2, “Inhibitors of aspartyl protease” (Vertex Pharmaceuticals Incorporated, priority 1999, dated 2013).
Read-outs that look alike come from different tables or passages of the source.

Experiments:
[1] = tested on: HIV-1 (strain IIIB); assay: Antiviral activity assay in MT4 cells (propidium iodide based); assay type: cell-based; settings: Human immunodeficiency virus 1, IIIB; wild type HIV-1 virus, MT4 cells; read-out: Wildtype virus - IC50
How it was run: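 MT4 cells infected with HIV-1 IIIB (MOI 100×TCID50, 1 hr, 37°C), diluted 6-fold into wells with serially diluted compound, incubated 5 days. Cells lysed with Nonidet-40; DNA content per well estimated by propidium iodide staining as the viability read-out, with mock-infected controls.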

[2] = tested on: D545701-14 multi protease inhibitor resistant virus; assay: Anti-viral activity against resistant virus D545701-14 in MT4 cells; assay type: cell-based, HIV-1
[3] = tested on: EP13 multi protease inhibitor resistant virus; assay: Anti-viral activity against resistant virus EP13 in MT4 cells; assay type: cell-based, HIV-1
How it was run: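 MT4 cells infected for 1 h at 37 °C, MOI 100×TCID50, then diluted 6-fold onto pre-diluted compound and cultured 5 days (5% CO2). Viable-cell DNA content estimated by propidium iodide. EP13 carries protease mutations M46I, L63P, A71V, V82F/L, I84V, no RT mutations.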

[4] = Human immunodeficiency virus 1, MT4, read-out: D545701-14 mutant - IC50, D545701-14 multi protease inhibitor resistant virus, MT4 cells
[5] = Human immunodeficiency virus 1, MT4, read-out: EP13 mutant IC50, EP13 multi protease inhibitor resistant virus, MT4 cells
[6] = Human immunodeficiency virus 1, MT4, read-out: D545701-14 mutant - IC50
[7] = Human immunodeficiency virus 1, MT4, read-out: EP13 mutant IC50

## CC(C)CN(C[C@@H](O)[C@H](Cc1ccc(OCc2cccc(C#N)c2)cc1)NC(=O)O[C@H]1CO[C@H]2OCC[C@H]21)S(=O)(=O)c1cccc(N)c1 [Compound 289]
[1]
  IC50: 1 to 10 nM
[2]; [4]
  IC50: 1 to 10 nM
[3]; [5]
  IC50: 1 to 10 nM

## CC(C)CN(C[C@@H](O)[C@H](Cc1ccc(OCCCCN)cc1)NC(=O)O[C@H]1CO[C@H]2OCC[C@H]21)S(=O)(=O)c1cccc(N)c1 [Compound 292]
[1]
  IC50: 10 to 100 nM
[2]; [4]
  IC50: 10 to 100 nM
[3]; [5]
  IC50: 10 to 100 nM

## CC(C)CN(C[C@@H](O)[C@H](Cc1ccc(OCc2ccccn2)cc1)NC(=O)O[C@H]1CO[C@H]2OCCC21)S(=O)(=O)c1cccc(N)c1 (stereo partly drawn) [Compound 293]
[1]
  IC50: 1 to 10 nM
[2]; [4]
  IC50: 1 to 10 nM
[3]; [5]
  IC50: 1 to 10 nM

## CC(=O)Oc1ccc(S(=O)(=O)N(CC(C)C)C[C@@H](O)[C@H](Cc2ccc(OCc3ccccn3)cc2)NC(=O)O[C@H]2COC3OCC[C@H]32)cc1C (stereo partly drawn) [Compound 294]
[1]
  IC50: 1 to 10 nM
[2]; [4]
  IC50: 1 to 10 nM
[3]; [5]
  IC50: 1 to 10 nM

## Cc1cc(S(=O)(=O)N(CC(C)C)C[C@@H](O)[C@H](Cc2ccc(OCc3ccccn3)cc2)NC(=O)O[C@H]2CO[C@H]3OCC[C@H]32)ccc1O [Compound 295]
[1]
  IC50: 1 to 10 nM
[2]; [4]
  IC50: 1 to 10 nM
[3]; [5]
  IC50: 1 to 10 nM

## CC(C)CN(C[C@@H](O)[C@H](Cc1ccc(OCc2ccccn2)cc1)NC(=O)O[C@@H]1CO[C@H]2OCC[C@H]21)S(=O)(=O)c1ccc(N)cc1 [Compound 299, (3S,3aS,6aR)-hexahydrofuro[2,3-b]furan-3-yl (1S,2R)-3-[[(4-aminophenyl)sulfonyl]-(isobutyl)amino]-2-hydroxy-1-[4-(2-pyridinylmethoxy)benzyl]propylcarbamate]
[1]
  IC50: 1 to 10 nM
[2]; [4]
  IC50: 1 to 10 nM
[3]; [5]
  IC50: 1 to 10 nM

## Cc1nc(COc2ccc(C[C@H](NC(=O)O[C@@H]3CO[C@H]4OCC[C@H]43)[C@H](O)CN(CC(C)C)S(=O)(=O)c3ccc(N)cc3)cc2)cs1 [Compound 300, (3S,3aS,6aR)-hexahydrofuro[2,3-b]furan-3-yl (1S,2R)-3-[[(4-aminophenyl)sulfonyl]-(isobutyl)amino]-2-hydroxy-1-{4-[(2-methyl-1,3-thiazol-4-yl)methoxy]benzyl}propylcarbamate]
[1]
  IC50: 1 to 10 nM
[2]; [4]
  IC50: 1 to 10 nM
[3]; [5]
  IC50: 1 to 10 nM

## CC(C)CN(C[C@@H](O)[C@H](Cc1ccc(OCc2cccc(C#N)c2)cc1)NC(=O)O[C@@H]1CO[C@H]2OCC[C@H]21)S(=O)(=O)c1ccc(N)cc1 [Compound 301, (3S,3aS,6aR)-hexahydrofuro[2,3-b]furan-3-yl (1S,2R)-3-[[(4-aminophenyl)sulfonyl](isobutyl)amino]-1-{4-[(3-cyanobenzyl)oxy]benzyl}-2-hydroxypropylcarbamate]
[1]
  IC50: 1 to 10 nM
[2]; [4]
  IC50: 1 to 10 nM
[3]; [5]
  IC50: 1 to 10 nM

## COC(=O)CCCOc1ccc(C[C@H](NC(=O)OC2CO[C@H]3OCCC23)[C@H](O)CN(CC(C)C)S(=O)(=O)c2ccc3c(c2)OCO3)cc1 (stereo partly drawn) [Compound 303, Methyl 4-(4-{(2S,3R)-2-({[3R,3aS,6aR)-hexahydrofuro[2,3-b]furan-3-yloxy]carbonyl}amino)-4-[(1,3-benzodioxol-5-ylsulfonyl)(isobutyl)amino]-3-hydroxybutyl}phenoxy) butanoate]
[1]
  IC50: 10 to 100 nM
[2]; [4]
  IC50: 10 to 100 nM
[3]; [5]
  IC50: 10 to 100 nM

## CC(C)CN(C[C@@H](O)[C@H](Cc1ccc(OCC(F)(F)F)cc1)NC(=O)O[C@H]1CO[C@H]2OCC[C@H]21)S(=O)(=O)c1ccc2c(c1)OCO2 [Compound 304, (3R,3aS,6aR)-hexahydrofuro[2,3-b]furan-3-yl (1S,2R)-3-[(1,3-benzodioxol-5-ylsulfonyl)(isobutyl)amino]-2-hydroxy-1-[4-(2,2,2-trifluoroethoxy)benzyl]propylcarbamate]
[1]
  IC50: 1 to 10 nM
[2]; [4]
  IC50: 1 to 10 nM
[3]; [5]
  IC50: 1 to 10 nM

## CC(C)(CCCC#N)CN(C[C@@H](O)[C@H](Cc1ccc(OCc2ccccc2)cc1)NC(=O)O[C@H]1CO[C@H]2OCC[C@H]21)S(=O)(=O)c1ccc2c(c1)OCO2 [Compound 305, (3R,3aS,6aR)-Hexahydrofuro[2,3-b]furan-3-yl (1S,2R)-3-[(1,3-benzodioxol-5-ylsulfonyl)(5-cyano-2,2-dimethylpentyl)amino]-1-[4-(benzyloxy)benzyl]-2-hydroxypropylcarbamate]
[1]
  IC50: 1 to 10 nM
[2]; [4]
  IC50: 1 to 10 nM
[3]; [5]
  IC50: 1 to 10 nM

## CC(C)CN(C[C@@H](O)[C@@H](N)Cc1ccc(OCc2ccccc2)cc1)S(=O)(=O)c1ccc2c(c1)OCO2 [Compound 308, N-{(2R,3S)-3-Amino-4-[4-(benzyloxy)phenyl]-2-hydroxybutyl}-N-isobutyl-1,3-benzodioxole-5-sulfonamide]
[1]
  IC50: 10 to 100 nM
[2]; [4]
  IC50: 1 to 10 nM
[3]; [5]
  IC50: 1 to 10 nM

## CNC(=O)Oc1ccc(C[C@H](NC(=O)O[C@H]2CO[C@H]3OCC[C@H]32)[C@H](O)CN(CC(C)C)S(=O)(=O)c2ccc3c(c2)OCO3)cc1 [Compound 309, (3R,3aS,6aR)-Hexahydrofuro[2,3-b]furan-3-yl (1S,2R)-3-[(1,3-benzodioxol-5-ylsulfonyl)(isobutyl)amino]-2-hydroxy-1-(4-{[(methylamino)carbonyl]oxy}benzyl)propylcarbamate]
[1]
  IC50: 1 to 10 nM
[2]; [6]
  IC50: 1 to 10 nM
[3]; [7]
  IC50: 1 to 10 nM

## CC(C)CN(C[C@@H](O)[C@H](Cc1ccc(OC(=O)NC(C)C)cc1)NC(=O)O[C@H]1CO[C@H]2OCC[C@H]21)S(=O)(=O)c1ccc2c(c1)OCO2 [Compound 310, (3R,3aS,6aR)-Hexahydrofuro[2,3-b]furan-3-yl (1S,2R)-3-[(1,3-benzodioxol-5-ylsulfonyl)(isobutyl)amino]-2-hydroxy-1-(4-{[(isopropylamino)carbonyl]oxy}benzyl)propylcarbamate]
[1]
  IC50: 1 to 10 nM
[2]; [4]
  IC50: 10 to 100 nM
[3]; [5]
  IC50: 1 to 10 nM

## CC(C)CN(C[C@@H](O)[C@H](Cc1ccc(OC(=O)N(C)C)cc1)NC(=O)O[C@H]1CO[C@H]2OCC[C@H]21)S(=O)(=O)c1ccc2c(c1)OCO2 [Compound 311, (3R,3aS,6aR)-Hexahydrofuro[2,3-b]furan-3-yl (1S,2R)-3[(1,3-benzodioxol-5-ylsulfonyl)(isobutyl)amino]-1-(4-{[(dimethylamino)carbonyl]oxy}benzyl)-2-hydroxypropylcarbamate]
[1]
  IC50: 1 to 10 nM
[2]; [6]
  IC50: 10 to 100 nM
[3]; [7]
  IC50: 1 to 10 nM

## CC(C)CN(C[C@@H](O)[C@H](Cc1ccc(OC(N)=O)cc1)NC(=O)O[C@H]1CO[C@H]2OCC[C@H]21)S(=O)(=O)c1ccc2c(c1)OCO2 [Compound 312, (3R,3aS,6aR)-Hexahydrofuro[2,3-b]furan-3-yl (1S,2R)-1-{4-[(aminocarbonyl)oxy]benzyl}-3-[(1,3-benzodioxol-5-ylsulfonyl)(isobutyl)amino]-2-hydroxypropylcarbamate]
[1]
  IC50: 10 to 100 nM
[2]; [4]
  IC50: 10 to 100 nM
[3]; [5]
  IC50: 1 to 10 nM

## CC(C)CN(C[C@@H](O)[C@H](Cc1ccc(OC(=O)NCCn2ccnc2)cc1)NC(=O)O[C@H]1CO[C@H]2OCC[C@H]21)S(=O)(=O)c1ccc2c(c1)OCO2 [Compound 313, (3R,3aS,6aR)-Hexahydrofuro[2,3-b]furan-3-yl (1S,2R)-3-[(1,3-benzodioxol-5-ylsulfonyl)(isobutyl)amino]-2-hydroxy-1-{4-[({[2-(1H-imidazol-1-yl)ethyl]amino}carbonyl)oxy]benzyl}propylcarbamate]
[1]
  IC50: 10 to 100 nM
[2]; [4]
  IC50: 1 to 10 nM
[3]; [5]
  IC50: 1 to 10 nM

## CC(C)CN(C[C@@H](O)[C@H](Cc1ccc(OCC(N)=O)cc1)NC(=O)O[C@H]1CO[C@H]2OCC[C@H]21)S(=O)(=O)c1ccc2c(c1)OCO2 [Compound 314, (3R,3aS,6aR)-Hexahydrofuro[2,3-b]furan-3-yl (1S,2R)-1-[4-(2-amino-2-oxoethoxy)benzyl]-3-[(1,3-benzodioxol-5-ylsulfonyl)(isobutyl)amino]-2-hydroxypropylcarbamate]
[1]
  IC50: 10 to 100 nM
[2]; [4]
  IC50: 10 to 100 nM
[3]; [5]
  IC50: 10 to 100 nM

## CNC(=O)COc1ccc(C[C@H](NC(=O)O[C@H]2CO[C@H]3OCC[C@H]32)[C@H](O)CN(CC(C)C)S(=O)(=O)c2ccc3c(c2)OCO3)cc1 [Compound 315, (3R,3aS,6aR)-Hexahydrofuro[2,3-b]furan-3-yl (1S,2R)-3[(1,3-benzodioxol-5-ylsulfonyl)(isobutyl)amino]-2-hydroxy-1-{4-[2-(methylamino)-2-oxoethoxy]benzyl}propylcarbamate]
[1]
  IC50: 10 to 100 nM
[2]; [4]
  IC50: 1 to 10 nM
[3]; [5]
  IC50: 1 to 10 nM

## CC(C)CN(C[C@@H](O)[C@H](Cc1ccc(OCCCCO)cc1)NC(=O)O[C@H]1CO[C@H]2OCC[C@H]21)S(=O)(=O)c1ccc2c(c1)OCO2 [Compound 317, (3R,3aS,6aR)-Hexahydrofuro[2,3-b]furan-3-yl (1S,2R)-3-[(1,3-benzodioxol-5-ylsulfonyl)(isobutyl)amino]-2-hydroxy-1-[4-(4-hydroxybutoxy)benzyl]propylcarbamate]
[1]
  IC50: 1 to 10 nM
[2]; [4]
  IC50: 1 to 10 nM
[3]; [5]
  IC50: 1 to 10 nM

## CNC(=O)OCCCCOc1ccc(C[C@H](NC(=O)O[C@H]2CO[C@H]3OCC[C@H]32)[C@H](O)CN(CC(C)C)S(=O)(=O)c2ccc3c(c2)OCO3)cc1 [Compound 318, (3R,3aS,6aR)-Hexahydrofuro[2,3-b]furan-3-yl (1S,2R)-3-[(1,3-benzodioxol-5-ylsulfonyl)(isobutyl)amino]-2-hydroxy-1-[4-(4-{[(methylamino)carbonyl]oxy}butoxy)benzyl]propylcarbamate]
[1]
  IC50: 1 to 10 nM
[2]; [4]
  IC50: 1 to 10 nM
[3]; [5]
  IC50: 1 to 10 nM
